# Tests used:
# [1] = biological target: Mitogen-activated protein kinase 8 (Homo sapiens) (UniProt P45983); conditions: Compound concentration 1000.0 nM
# [2] = biological target: LIM domain kinase 2 (Homo sapiens) (UniProt P53671); conditions: Compound concentration 1000.0 nM
# [3] = biological target: Cyclin-dependent kinase 14 (Homo sapiens) (UniProt O94921); conditions: Compound concentration 1000.0 nM
# [4] = biological target: Serine/threonine-protein kinase Nek5 (Homo sapiens) (UniProt Q6P3R8); conditions: Compound concentration 1000.0 nM
# [5] = biological target: Substance-P receptor (Homo sapiens) (UniProt P25103); test: NK1 (h) Eurofins-Cerep binding assay; design: ligand concentration 0.05 nM; conditions: filed as agonist, Compound concentration 10.0 uM
# [6] = biological target: Androgen receptor (Homo sapiens) (UniProt P10275); test: AR (h) Eurofins-Cerep binding assay; design: ligand concentration 1 nM; conditions: filed as agonist, Compound concentration 10.0 uM
# [7] = biological target: Protein kinase C delta type (Homo sapiens) (UniProt Q05655); conditions: Compound concentration 1000.0 nM
# [8] = biological target: GABA-A receptor; alpha-1/beta-2/gamma-2 (Homo sapiens) (UniProt P14867+P47870+P18507); test: GABAA1 (h) (alpha1,beta2,gamma2) Eurofins-Cerep binding assay; assay type: protein-complex assay; design: ligand concentration 15 nM; conditions: filed as agonist, Compound concentration 10.0 uM
# [9] = biological target: Angiopoietin-1 receptor (Homo sapiens) (UniProt Q02763); conditions: Compound concentration 1000.0 nM
# [10] = biological target: Tyrosine-protein kinase JAK1 (Homo sapiens) (UniProt P23458); conditions: Compound concentration 1000.0 nM
# [11] = biological target: Mitogen-activated protein kinase 3 (Homo sapiens) (UniProt P27361); conditions: Compound concentration 1000.0 nM
# [12] = biological target: Alpha-1A adrenergic receptor (Homo sapiens) (UniProt P35348); test: Alpha1A (h) Eurofins-Cerep binding assay; design: ligand concentration 0.1 nM; conditions: filed as antagonist, Compound concentration 10.0 uM
# Chain of Alpha-1A adrenergic receptor (Homo sapiens) (P35348 whole entry): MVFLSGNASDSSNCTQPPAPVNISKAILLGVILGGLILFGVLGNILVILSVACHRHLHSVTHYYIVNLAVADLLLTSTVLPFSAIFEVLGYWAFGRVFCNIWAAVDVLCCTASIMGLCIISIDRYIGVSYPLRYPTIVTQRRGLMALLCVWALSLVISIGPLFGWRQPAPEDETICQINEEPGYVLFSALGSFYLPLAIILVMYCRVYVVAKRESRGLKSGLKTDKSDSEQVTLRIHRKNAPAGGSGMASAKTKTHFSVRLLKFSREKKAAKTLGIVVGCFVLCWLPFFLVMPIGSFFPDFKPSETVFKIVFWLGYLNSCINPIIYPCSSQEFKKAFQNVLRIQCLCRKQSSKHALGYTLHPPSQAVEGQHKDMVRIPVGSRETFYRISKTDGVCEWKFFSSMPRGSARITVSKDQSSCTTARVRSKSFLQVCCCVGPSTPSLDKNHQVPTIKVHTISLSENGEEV
# [13] = biological target: Kappa-type opioid receptor (Homo sapiens) (UniProt P41145); test: kappa (h) (KOP) Eurofins-Cerep binding assay; design: ligand concentration 0.5 nM; conditions: filed as agonist, Compound concentration 10.0 uM
# Chain of Kappa-type opioid receptor (Homo sapiens) (P41145 whole entry, canonical isoform): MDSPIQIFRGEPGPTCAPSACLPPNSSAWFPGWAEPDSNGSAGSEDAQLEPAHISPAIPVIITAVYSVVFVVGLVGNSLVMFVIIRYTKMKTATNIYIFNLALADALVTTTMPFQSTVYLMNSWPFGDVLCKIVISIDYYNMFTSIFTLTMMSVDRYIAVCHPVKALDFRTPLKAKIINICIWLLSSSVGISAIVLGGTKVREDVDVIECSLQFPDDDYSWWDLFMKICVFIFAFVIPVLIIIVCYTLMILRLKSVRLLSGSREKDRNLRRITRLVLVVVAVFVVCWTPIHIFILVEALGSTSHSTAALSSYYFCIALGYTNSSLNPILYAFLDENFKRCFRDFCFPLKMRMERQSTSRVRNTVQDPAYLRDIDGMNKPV
# [14] = test system: Phosphatidylinositol 4,5-bisphosphate 3-kinase catalytic subunit alpha isoform (Homo sapiens), P42336 [E545A]; conditions: Compound concentration 1000.0 nM
# [15] = biological target: Sulfonylurea receptors; K-ATP channels (Rattus norvegicus) (UniProt Q63563+P70673+Q63664+Q09429); test: KATP channel Eurofins-Cerep binding assay; assay type: protein-complex assay; design: ligand concentration 0.1 nM; conditions: filed as antagonist, Compound concentration 10.0 uM
# [16] = biological target: Endothelin receptor type B (Homo sapiens) (UniProt P24530); test: ETB (h) Eurofins-Cerep binding assay; design: ligand concentration 0.03 nM; conditions: filed as agonist, Compound concentration 10.0 uM
# Chain of Endothelin receptor type B (Homo sapiens) (P24530 whole entry): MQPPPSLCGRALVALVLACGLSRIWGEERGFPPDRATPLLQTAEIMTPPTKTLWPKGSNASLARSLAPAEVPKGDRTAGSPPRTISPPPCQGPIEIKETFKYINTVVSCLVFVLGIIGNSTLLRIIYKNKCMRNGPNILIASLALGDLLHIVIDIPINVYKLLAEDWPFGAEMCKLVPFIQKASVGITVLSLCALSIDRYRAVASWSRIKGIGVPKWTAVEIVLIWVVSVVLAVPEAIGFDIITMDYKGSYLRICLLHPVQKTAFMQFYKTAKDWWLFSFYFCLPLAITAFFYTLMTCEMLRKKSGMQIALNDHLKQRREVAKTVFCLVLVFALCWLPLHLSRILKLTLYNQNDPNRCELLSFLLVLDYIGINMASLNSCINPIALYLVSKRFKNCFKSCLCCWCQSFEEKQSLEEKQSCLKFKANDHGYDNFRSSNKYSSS
# [17] = biological target: 5-hydroxytryptamine receptor 2A (Homo sapiens) (UniProt P28223); conditions: Compound concentration 10.0 uM
# Chain of 5-hydroxytryptamine receptor 2A (Homo sapiens) (P28223 whole entry): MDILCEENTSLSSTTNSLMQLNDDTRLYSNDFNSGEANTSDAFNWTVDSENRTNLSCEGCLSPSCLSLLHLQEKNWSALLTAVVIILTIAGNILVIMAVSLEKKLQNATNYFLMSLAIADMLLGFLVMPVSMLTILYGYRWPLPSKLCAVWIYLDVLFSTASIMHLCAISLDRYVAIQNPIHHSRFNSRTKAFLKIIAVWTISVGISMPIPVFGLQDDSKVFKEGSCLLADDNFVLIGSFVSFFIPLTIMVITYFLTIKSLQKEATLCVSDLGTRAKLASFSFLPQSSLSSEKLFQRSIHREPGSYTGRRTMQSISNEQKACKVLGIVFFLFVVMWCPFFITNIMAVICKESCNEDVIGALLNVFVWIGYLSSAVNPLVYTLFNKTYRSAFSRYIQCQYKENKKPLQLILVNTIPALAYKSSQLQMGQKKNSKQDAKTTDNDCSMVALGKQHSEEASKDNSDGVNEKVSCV
# [18] = biological target: T1, Muscarinic acetylcholine receptor M2 (Homo sapiens) (UniProt P08172); test: M2 (h) Eurofins-Cerep binding assay; design: ligand concentration 2 nM; conditions: filed as antagonist, Compound concentration 10.0 uM
# T1 sequence (whole entry): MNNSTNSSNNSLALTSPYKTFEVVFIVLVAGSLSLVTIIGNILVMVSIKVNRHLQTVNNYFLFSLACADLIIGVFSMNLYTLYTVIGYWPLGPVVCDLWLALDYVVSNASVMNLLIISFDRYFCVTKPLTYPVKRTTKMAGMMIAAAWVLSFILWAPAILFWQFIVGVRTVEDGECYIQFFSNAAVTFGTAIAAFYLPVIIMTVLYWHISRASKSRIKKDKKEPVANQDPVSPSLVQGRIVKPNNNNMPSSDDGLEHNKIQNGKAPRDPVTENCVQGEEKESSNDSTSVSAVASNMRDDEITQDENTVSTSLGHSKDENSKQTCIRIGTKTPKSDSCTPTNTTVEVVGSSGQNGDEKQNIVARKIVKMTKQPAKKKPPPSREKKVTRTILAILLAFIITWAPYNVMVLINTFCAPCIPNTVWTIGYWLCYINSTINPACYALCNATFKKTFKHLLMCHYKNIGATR
# [19] = biological target: Tyrosine-protein kinase TXK (Homo sapiens) (UniProt P42681); conditions: Compound concentration 1000.0 nM
# Chain of Tyrosine-protein kinase TXK (Homo sapiens) (P42681 whole entry): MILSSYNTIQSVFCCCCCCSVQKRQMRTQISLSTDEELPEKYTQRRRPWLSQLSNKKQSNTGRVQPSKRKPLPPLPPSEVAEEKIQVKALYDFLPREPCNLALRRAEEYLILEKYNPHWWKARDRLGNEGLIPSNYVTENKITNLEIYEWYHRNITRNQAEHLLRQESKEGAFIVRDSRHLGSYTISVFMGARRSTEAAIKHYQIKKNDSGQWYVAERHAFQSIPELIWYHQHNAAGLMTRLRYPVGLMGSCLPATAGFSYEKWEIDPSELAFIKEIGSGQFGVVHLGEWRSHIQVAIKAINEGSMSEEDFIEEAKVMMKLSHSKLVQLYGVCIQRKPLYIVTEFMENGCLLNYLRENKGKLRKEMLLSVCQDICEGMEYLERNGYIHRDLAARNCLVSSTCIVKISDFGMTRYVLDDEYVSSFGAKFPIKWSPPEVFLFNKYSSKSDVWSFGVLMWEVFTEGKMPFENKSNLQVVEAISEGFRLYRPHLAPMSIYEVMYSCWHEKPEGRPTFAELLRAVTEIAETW
# [20] = test system: Receptor-type tyrosine-protein kinase FLT3 (Homo sapiens), P36888 [UNDEFINED MUTATION]; conditions: Compound concentration 1000.0 nM
# Chain of Receptor-type tyrosine-protein kinase FLT3 (Homo sapiens), P36888 [UNDEFINED MUTATION] (P36888 whole entry, looked up, change not shown): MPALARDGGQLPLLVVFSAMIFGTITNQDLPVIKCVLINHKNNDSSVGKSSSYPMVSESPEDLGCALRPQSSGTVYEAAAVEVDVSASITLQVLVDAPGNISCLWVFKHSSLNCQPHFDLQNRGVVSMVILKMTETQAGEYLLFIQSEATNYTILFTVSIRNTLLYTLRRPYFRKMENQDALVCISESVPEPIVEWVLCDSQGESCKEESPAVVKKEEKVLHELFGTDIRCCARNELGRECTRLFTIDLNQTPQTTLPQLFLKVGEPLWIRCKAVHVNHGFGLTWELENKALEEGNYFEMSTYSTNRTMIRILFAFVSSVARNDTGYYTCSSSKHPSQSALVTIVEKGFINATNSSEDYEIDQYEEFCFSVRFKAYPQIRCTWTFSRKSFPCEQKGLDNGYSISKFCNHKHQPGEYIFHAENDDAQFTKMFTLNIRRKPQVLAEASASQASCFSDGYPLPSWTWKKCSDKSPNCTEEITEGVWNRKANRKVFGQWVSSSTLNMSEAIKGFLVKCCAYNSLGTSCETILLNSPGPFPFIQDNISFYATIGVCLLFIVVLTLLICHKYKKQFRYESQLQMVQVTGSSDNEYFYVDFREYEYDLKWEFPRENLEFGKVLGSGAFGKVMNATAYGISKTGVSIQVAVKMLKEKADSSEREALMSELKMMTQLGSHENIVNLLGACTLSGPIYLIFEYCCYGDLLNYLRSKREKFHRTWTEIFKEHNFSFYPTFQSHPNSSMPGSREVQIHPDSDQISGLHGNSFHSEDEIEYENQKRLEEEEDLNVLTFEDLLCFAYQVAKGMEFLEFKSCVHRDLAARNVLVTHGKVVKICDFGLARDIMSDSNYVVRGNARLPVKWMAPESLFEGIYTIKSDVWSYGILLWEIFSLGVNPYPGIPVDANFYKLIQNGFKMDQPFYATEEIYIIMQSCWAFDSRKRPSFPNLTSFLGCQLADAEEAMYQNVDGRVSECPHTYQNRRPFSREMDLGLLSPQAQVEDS
# [21] = biological target: Mitogen-activated protein kinase kinase kinase 12 (Homo sapiens) (UniProt Q12852); conditions: Compound concentration 1000.0 nM
# [22] = biological target: Type-1 angiotensin II receptor (Homo sapiens) (UniProt P30556); test: AT1 (h) Eurofins-Cerep binding assay; design: ligand concentration 0.05 nM; conditions: filed as antagonist, Compound concentration 10.0 uM
# Chain of Type-1 angiotensin II receptor (Homo sapiens) (P30556 whole entry): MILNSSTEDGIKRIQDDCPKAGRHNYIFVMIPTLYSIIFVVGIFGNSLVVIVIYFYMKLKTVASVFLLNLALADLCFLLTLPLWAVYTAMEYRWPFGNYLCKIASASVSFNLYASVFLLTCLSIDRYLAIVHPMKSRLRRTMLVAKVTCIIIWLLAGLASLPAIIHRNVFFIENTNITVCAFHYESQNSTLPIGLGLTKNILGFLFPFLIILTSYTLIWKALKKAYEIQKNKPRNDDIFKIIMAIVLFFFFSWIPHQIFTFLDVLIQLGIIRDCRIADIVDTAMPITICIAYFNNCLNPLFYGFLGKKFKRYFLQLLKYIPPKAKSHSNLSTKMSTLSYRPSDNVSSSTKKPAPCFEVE
# [23] = biological target: Vascular endothelial growth factor receptor 2 (Homo sapiens) (UniProt P35968); conditions: Compound concentration 1000.0 nM
# [24] = biological target: D(1A) dopamine receptor (Homo sapiens) (UniProt P21728); conditions: Compound concentration 10.0 uM
# [25] = biological target: Ephrin type-A receptor 1 (Homo sapiens) (UniProt P21709); conditions: Compound concentration 1000.0 nM
# [26] = biological target: Serine/threonine-protein kinase PLK3 (Homo sapiens) (UniProt Q9H4B4); conditions: Compound concentration 1000.0 nM
# [27] = biological target: SRSF protein kinase 3 (Homo sapiens) (UniProt Q9UPE1); conditions: Compound concentration 1000.0 nM
# [28] = test system: Epidermal growth factor receptor (Homo sapiens), P00533 [G719C]; conditions: Compound concentration 1000.0 nM
# [29] = biological target: Insulin receptor (Homo sapiens) (UniProt P06213); conditions: Compound concentration 1000.0 nM
# Chain of Insulin receptor (Homo sapiens) (P06213 28-758 limits assumed): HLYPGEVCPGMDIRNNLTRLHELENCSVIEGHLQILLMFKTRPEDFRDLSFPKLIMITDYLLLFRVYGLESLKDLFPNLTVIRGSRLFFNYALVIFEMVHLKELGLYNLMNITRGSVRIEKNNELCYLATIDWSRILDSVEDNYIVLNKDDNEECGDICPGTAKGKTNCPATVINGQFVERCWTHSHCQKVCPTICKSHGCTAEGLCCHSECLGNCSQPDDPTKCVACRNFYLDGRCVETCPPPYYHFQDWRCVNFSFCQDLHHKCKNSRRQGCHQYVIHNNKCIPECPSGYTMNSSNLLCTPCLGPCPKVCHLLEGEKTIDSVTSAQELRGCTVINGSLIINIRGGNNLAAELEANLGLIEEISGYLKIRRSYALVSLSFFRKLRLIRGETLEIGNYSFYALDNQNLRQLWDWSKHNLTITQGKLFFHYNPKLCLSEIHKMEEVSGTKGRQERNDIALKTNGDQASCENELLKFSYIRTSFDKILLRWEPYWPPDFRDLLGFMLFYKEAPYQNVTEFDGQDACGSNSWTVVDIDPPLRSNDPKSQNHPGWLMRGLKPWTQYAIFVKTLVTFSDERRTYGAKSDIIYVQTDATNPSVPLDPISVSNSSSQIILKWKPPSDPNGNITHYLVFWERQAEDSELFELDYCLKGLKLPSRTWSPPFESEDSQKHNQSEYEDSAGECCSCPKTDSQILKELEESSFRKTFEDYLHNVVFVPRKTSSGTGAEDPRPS
# Chain of Insulin receptor (Homo sapiens) (P06213 763-1382 limits assumed): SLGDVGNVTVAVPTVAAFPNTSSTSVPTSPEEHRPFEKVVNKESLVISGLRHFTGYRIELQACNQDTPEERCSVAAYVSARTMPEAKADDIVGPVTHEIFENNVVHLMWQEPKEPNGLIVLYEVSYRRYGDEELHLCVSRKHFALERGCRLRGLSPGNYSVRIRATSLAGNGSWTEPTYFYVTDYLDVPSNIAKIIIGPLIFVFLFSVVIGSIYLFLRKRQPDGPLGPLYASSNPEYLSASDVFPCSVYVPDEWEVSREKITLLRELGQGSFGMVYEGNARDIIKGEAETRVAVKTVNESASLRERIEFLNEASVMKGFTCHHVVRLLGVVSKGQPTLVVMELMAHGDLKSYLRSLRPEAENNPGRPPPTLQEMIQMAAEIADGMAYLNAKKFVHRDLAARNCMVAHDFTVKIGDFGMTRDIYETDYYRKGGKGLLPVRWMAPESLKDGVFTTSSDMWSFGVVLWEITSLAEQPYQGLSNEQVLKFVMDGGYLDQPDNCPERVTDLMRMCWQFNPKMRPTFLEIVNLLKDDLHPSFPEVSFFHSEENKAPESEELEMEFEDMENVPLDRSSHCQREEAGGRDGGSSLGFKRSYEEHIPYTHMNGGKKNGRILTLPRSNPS
# [30] = biological target: Kappa-type opioid receptor (Homo sapiens) (UniProt P41145); conditions: Compound concentration 10.0 uM
# [31] = biological target: Maternal embryonic leucine zipper kinase (Homo sapiens) (UniProt Q14680); conditions: Compound concentration 1000.0 nM
# [32] = biological target: MAP/microtubule affinity-regulating kinase 4 (Homo sapiens) (UniProt Q96L34); conditions: Compound concentration 1000.0 nM
# Rattus norvegicus [33] = species on record: Rattus norvegicus; conditions: Compound concentration 10.0 uM
# [34] = biological target: Serine/threonine-protein kinase 35 (Homo sapiens) (UniProt Q8TDR2); conditions: Compound concentration 1000.0 nM
# Rattus norvegicus [35] = species on record: Rattus norvegicus; test: SKCa channel Eurofins-Cerep binding assay; design: ligand concentration 0.007 nM; conditions: filed as antagonist, Compound concentration 10.0 uM
# [36] = biological target: Mitogen-activated protein kinase kinase kinase 13 (Homo sapiens) (UniProt O43283); conditions: Compound concentration 1000.0 nM
# [37] = biological target: Casein kinase I isoform alpha (Homo sapiens) (UniProt P48729); conditions: Compound concentration 1000.0 nM
# [38] = biological target: 5'-AMP-activated protein kinase catalytic subunit alpha-2 (Homo sapiens) (UniProt P54646); conditions: Compound concentration 1000.0 nM
# [39] = biological target: Macrophage-stimulating protein receptor (Homo sapiens) (UniProt Q04912); conditions: Compound concentration 1000.0 nM
# [40] = biological target: 5-hydroxytryptamine receptor 2A (Homo sapiens) (UniProt P28223); test: 5-HT2A (h) Eurofins-Cerep binding assay; design: ligand concentration 0.5 nM; conditions: filed as antagonist, Compound concentration 10.0 uM
Compound,residual activity [1],residual activity [2],residual activity [3],residual activity [4],% Inhibition of Control Specific Binding (Mean n=2) [5],% Inhibition of Control Specific Binding (Mean n=2) [6],residual activity [7],% Inhibition of Control Specific Binding (Mean n=2) [8],residual activity [9],residual activity [10],residual activity [11],% Inhibition of Control Specific Binding (Mean n=2) [12],% Inhibition of Control Specific Binding (Mean n=2) [13],residual activity [14],% Inhibition of Control Specific Binding (Mean n=2) [15],% Inhibition of Control Specific Binding (Mean n=2) [16],inhibition [17],% Inhibition of Control Specific Binding (Mean n=2) [18],residual activity [19],residual activity [20],other results
COc1ccc2c(c1)O[C@@H](c1ccc(OC)c(OC)c1)C[C@H]2NC(=O)C1(c2ccc3c(c2)OC(F)(F)O3)CC1 [A-1596586],91%,100%,93%,71%,44.4%,7.1%,100%,-27.5%,92%,90%,89%,5.7%,42.2%,94%,-1.9%,-9.1%,8.84%,-9.9%,97%,100%,residual activity [21]: 80%; % Inhibition of Control Specific Binding (Mean n=2) [22]: -1.1%; residual activity [23]: 80%; inhibition [24]: 29.2%; residual activity [25]: 93%; residual activity [26]: 92%; residual activity [27]: 100%; residual activity [28]: 96%; residual activity [29]: 79%; inhibition [30]: 34.1%; residual activity [31]: 65%; residual activity [32]: 92%; inhibition (Rattus norvegicus [33]): 90.5%; residual activity [34]: 98%; % Inhibition of Control Specific Binding (Mean n=2) (Rattus norvegicus [35]): 2.2%; residual activity [36]: 67%; residual activity [37]: 78%; residual activity [38]: 100%; residual activity [39]: 94%; % Inhibition of Control Specific Binding (Mean n=2) [40]: -7.4%
COc1ccc2c(c1)O[C@H](c1ccc(OC)c(OC)c1)C[C@@H]2NC(=O)C1(c2ccc3c(c2)OC(F)(F)O3)CC1 [A-1596584],96%,100%,98%,100%,92.1%,-3.6%,100%,-86.2%,70%,100%,100%,27.3%,44.7%,100%,5.1%,-9%,7.46%,-5.5%,95%,100%,residual activity [21]: 87%; % Inhibition of Control Specific Binding (Mean n=2) [22]: 12.3%; residual activity [23]: 88%; inhibition [24]: 35.1%; residual activity [25]: 88%; residual activity [26]: 100%; residual activity [27]: 97%; residual activity [28]: 100%; residual activity [29]: 82%; inhibition [30]: 27.4%; residual activity [31]: 78%; residual activity [32]: 88%; inhibition (Rattus norvegicus [33]): 66.6%; residual activity [34]: 100%; % Inhibition of Control Specific Binding (Mean n=2) (Rattus norvegicus [35]): 4%; residual activity [36]: 91%; residual activity [37]: 82%; residual activity [38]: 98%; residual activity [39]: 100%; % Inhibition of Control Specific Binding (Mean n=2) [40]: -3.7%

# From ChEMBL document CHEMBL4507262, “Data for DCP probe A-1596586” (2021)
